The source of these data is article PMC11004567 (Heliyon, 2024).

Data set [1] deals with MRSA3, methicillin-resistant S. aureus clinical isolate 63718. As to the kind of experiment: In vitro antibacterial evaluation, broth dilution micro-method MIC. Type of data set: cell-based. The settings on record: Staphylococcus aureus, read-out: MIC MRSA3. (In general: Dilution methods test growth across graded concentrations, often in twofold steps.)
Data set [2] relates to Staphylococcus aureus ATCC 29213. The data set is described as above. The class given is cell-based.
Data set [3] deals with MRSA2, methicillin-resistant S. aureus clinical isolate SA 630. The description is as above. Type of data set: cell-based. The settings on record: Staphylococcus aureus, MRSA, read-out: MIC MRSA2.
The subject of data set [4] is VRE 725 B, vancomycin-resistant E. faecalis. Description: In vitro anti-enterococcal MIC, broth dilution micro-method. The settings on record: 24 h, read-out: MIC VRE 725 B. The class given is cell-based, Enterococcus faecalis.
Data set [5] relates to S. aureus ATCC 29213. Description: MTT assay, inhibition of respiratory activity. The class given is cell-based, Staphylococcus aureus. The settings on record: at 16 × MIC. For orientation: Formazan colour is commonly taken as a measure of viable cells.
The test system of data set [6] is VRE 342B, vancomycin-resistant E. faecalis. As to the kind of experiment: In vitro anti-enterococcal MIC, broth dilution micro-method. Type of data set: cell-based, Enterococcus faecalis. The settings on record: 24 h, read-out: MIC VRE 342B.
The next data set deals with E. faecalis ATCC 29213. The description is as above. Type of data set: cell-based. The conditions noted are these: Enterococcus faecalis, ATCC29213, 24 h, read-out: MIC E. faecalis ATCC 29213.
In data set [7] the test system is MRSA1, methicillin-resistant S. aureus clinical isolate SA 3202. As to the kind of experiment: In vitro antibacterial evaluation, broth dilution micro-method MIC. The class given is cell-based. The conditions noted are these: Staphylococcus aureus, MRSA, read-out: MIC MRSA1.
Data set [8] relates to VRE 368, vancomycin-resistant E. faecalis. As to the kind of experiment: In vitro anti-enterococcal MIC, broth dilution micro-method. Type of data set: cell-based, Enterococcus faecalis. The settings on record: 24 h, read-out: MIC VRE 368.
Data set [9] deals with human monocytic leukemia cell line THP-1. Description: In vitro cell viability analysis. The class given is cell-based. The settings on record: read-out: IC50 THP-1.
A further data set has as its system M. kansasii DSM 44162. Description: In vitro antimycobacterial evaluation, broth dilution micro-method. Type of data set: cell-based. The settings on record: Mycobacterium kansasii, DSM44162, read-out: MIC M. kansasii DSM 44162.
Data set [10] deals with mature S. aureus ATCC 29213 biofilm. As to the kind of experiment: Biofilm disruption / eradication of mature biofilm. Type of data set: cell-based, Staphylococcus aureus.
Data set [11] deals with S. aureus ATCC 29213. Description: Dynamics of antibacterial effect. The class given is cell-based, Staphylococcus aureus. The settings on record: time-kill curves, 1×, 2× (SB3–Cu also 4×) MIC, up to 24 h.
For data set [12], the system named is breast cancer MCF-7 cells. The settings on record: through creation of ROS, disruption of mitochondrial membrane potential; cited from earlier work.
The test system of data set [13] is non-cancer human renal proximal tubule epithelial TH-1 cells. The settings on record: read-out: IC50 TH-1; cytotoxicity, non-cancer renal TH-1 cells; cited from earlier work.
Data set [14] can be described thus: Lipophilicity log k by RP-HPLC. The class given is physicochemical. The settings on record: logarithm of capacity factor, experimentally determined by RP-HPLC.
Setting [15] is: ATCC29213, 24 h, read-out: MIC SA.

Each structure is given as a SMILES string. Converted amounts (≈) assume the structure as drawn. Read-outs that look alike come from different tables or passages of the source.

Regarding `CC1(C)S[C@@H]2[C@H](NC(=O)[C@H](N)c3ccccc3)C(=O)N2[C@H]1C(=O)O` [AMP, ampicillin, reference compound], the MIC (usually the lowest concentration that inhibits growth of the organism) in data set [1] (24 h) was 16 µg/mL; in [1], 45.8 µM; in data set [2] (setting [15]), 2 µg/mL; in [2] (ATCC29213, read-out: MIC SA) it was 5.7 µM; in data set [3] (24 h), greater than 16 µg/mL; in [3] it was greater than 45.8 µM. Further, the minimum inhibitory concentration (MIC) was 4 µg/mL (≈ 11.4 µM) in data set [4]; 4 µg/mL (≈ 11.4 µM) in data set [6]; 1 µg/mL (≈ 2.86 µM) with E. faecalis ATCC 29213; greater than 16 µg/mL in data set [7] (24 h); greater than 45.8 µM in [7]; 4 µg/mL (≈ 11.4 µM) in [8]. The “S. aureus Respiration Inhibition” value in the data set on S. aureus ATCC 29213 [5] came out at 81.9%.

Turning to `N.N.[Cl][Pt][Cl]` [CPT, cisplatin, reference compound], the half-inhibitory concentration (IC50) (commonly the concentration that inhibits the measured activity by half) in data set [9] (cell viability, CCK-8, 24 h, ± SD, n = 6) came to 16.1 ± 1.3 µM.

With `NNC(=O)c1ccncc1` [INH, isoniazid], in the data set with M. kansasii DSM 44162, the MIC was found to be 29.1 µM (≈ 3.99 µg/mL).

Turning to `O=C1c2ccccc2NC(c2cc([N+](=O)[O-])ccc2O)N1/N=C/c1cc([N+](=O)[O-])ccc1O` (stereo not shown) [SB3, 3-[(E)-(2-hydroxy-5-nitrobenzylidene)amino]-2-(2-hydroxy-5-nitrophenyl)-2,3-dihydroquinazolin-4(1H)-one], in data set [10] (at 0.5 × MIC), the “Reduction of biofilm viability” value is “no effect”. Further, the “Eradication activity on mature biofilm” value in [10] (at 1 × MIC) worked out at 81.7 ± 13.7%. Moreover, the “Concentration eradicating 80% of S. aureus biofilm” value in [10] (mature biofilm, 24 h treatment) came out at 1 × MIC. For the same compound, the MIC worked out at 64 µg/mL in data set [1] (24 h); 141 µM in [1]; 32 µg/mL in [2] (setting [15]); 71.2 µM in [2] (ATCC29213, read-out: MIC SA); 16 µg/mL in data set [3] (24 h); 35.6 µM in [3]. Also, the minimal inhibitory concentration (MIC) in [4] is greater than 256 µg/mL; in data set [6] it was greater than 256 µg/mL; in the data set on E. faecalis ATCC 29213, 256 µg/mL (≈ 570 µM); in data set [7] (24 h) it was 64 µg/mL; in data set [7], 141 µM; in [8] it was greater than 256 µg/mL. Also, the “Mode of antibacterial action (bactericidal vs bacteriostatic)” value in the data set with S. aureus ATCC 29213 [11] is “only bacteriostatically”. Further, the “Apoptosis of MCF-7 cells” value in data set [12] was “induces apoptosis”. In addition, the IC50 was 432 µM in data set [13] and 12.7 ± 1.2 µM in [9] (Homo sapiens, THP-1, 24 h). The same compound returned a log k in [14] of 0.6022.

Consider `COc1cccc(/C=N/N2C(=O)c3ccccc3NC2c2cccc(OC)c2O)c1O` (stereo not shown) [SB8, 3-[(E)-(2-hydroxy-3-methoxybenzylidene)amino]-2-(2-hydroxy-3-methoxyphenyl)-2,3-dihydroquinazolin-4(1H)-one], for which the minimum inhibitory concentration (MIC) (in data set [1] (24 h); in data set [2] (setting [15]); in [3] (24 h); in [4]; in [6]; in the data set with E. faecalis ATCC 29213) was greater than 256 µg/mL in each case. Moreover, the MIC in [7] (24 h) and in data set [8] was greater than 256 µg/mL throughout. Further, the IC50 was greater than 1000 µM in data set [13] and greater than 50 µM in [9] (Homo sapiens, THP-1, 24 h). Also, in [14], the log k is given as 0.1689.
